Experiment [1] deals with T1, CYP3A4 (Homo sapiens, UniProt P08684). In words: Determination of IC50 against CYP3A4 by measurement of inhibition of midazolam metabolism (human liver microsomes, 1-hydroxymidazolam by LC-MS/MS). It counts as biochemical. Also noted: 0.1 mg/mL human liver microsomes. The settings on record: 2 μM midazolam, 0.1 mg/mL human liver microsomes. Here is the method:
3. Determination of IC50 Against CYP3A4 by Measurement of Inhibition of Midazolam Metabolism
This assay was performed using a standard 96 well plate design. […] The incubation substrate mix contains 2 μM midazolam, 0.1 mg/mL human liver microsomes, 1 mM NADPH, and potassium phosphate buffer (100 mM, pH 7.4). Quantitation of metabolite peak area ratio against internal standard is determined by LC-MS/MS analysis. The production of 1-hydroxymidazolam from midazolam metabolism is determined after incubation for eight minutes by comparison to a standard curve generated for the metabolite.
Samples were analyzed in the MRM mode using a Sciex API 3000 mass spectrometer (Applied Biosystems, Foster City, Calif.) with a Paradigm MS4 binary pump (Michrom BioResources Inc., Auburn, Calif.) and a LEAP CTC PAL autosampler (LEAP Technologies, Carrboro, N.C.). A Phenomenex Synergi, 4μ, Polar-RP, 10×2.0 mm column (Phenomenex, Torrance, Calif.) was used for separation with a mobile phase composition of: 0.1% formic acid in water (A) and: 0.1% formic acid in methanol (B). The following gradient was used: […]
The sample injection volume was 10 μL and flow was split post-column with 0.4 mL/min going to the mass spectrometer. Analysis was performed using the following API 3000 mass spectrometer settings: […]
For orientation: Liver microsomes are vesicles of endoplasmic reticulum, rich in cytochrome P450 enzymes.

For experiment [2], the target named is T1, CYP3A4. In words: Determination of compound Kiapp against recombinant CYP3A4 enzyme (BFC fluorescent substrate). The class given is biochemical. On the procedure: 1. Determination of compound Kiapp
A determination of the Kiapp of the compounds of the invention against recombinant CYP3A4 enzyme was performed as follows. The assay was performed in a 100 mM sodium phosphate buffer pH 7.0, 5 mM TCEP and containing 2% dimethylformamide (final concentration) upon addition of substrate and inhibitor. A typical reaction for the determination of Kiapp values was carried at room temperature in a solid black Costar u-bottom 96-well polypropylene plate. In each well, recombinant CYP3A4 enzyme (5.5 nM or 8 nM, final concentration depending on the commercial source of the enzyme) was pre-incubated in the presence of the inhibitor for at least 30 minutes in the assay buffer. When pre-incubation was completed (˜30 min), the reaction was initiated by adding NADPH (200 uM, final concentration), and 7-benzyloxy-4-(trifluoromethyl)-coumarin (BFC) (5 uM, final concentration). The oxidation of the coumarin substrate was recorded by a 96-well plate reader POLARstar (BMG LABTECH, Offenburg, Germany).
The initial reaction velocities were measured during the first 5 min of the reaction when the release of the fluorescent product is linear with time, in the absence and in the presence of various concentrations of inhibitors. For non-partial & partial inhibitors, the Kiapp values were determined by using the equation for tight-binding inhibitor developed by Morrison, J F (Morrison J F. Biochim Biophys Acta. 1969, 185: 269-86) and by Szedlaseck S E et al. (Szedlascek, S. E., Ostafe, V., Serban, M., and Vlad, M.O. Biochem. J. 1988, 254:311-312), respectively.
The fluorescent substrate BFC was purchased from Sigma (St Louis, Mo.). Two commercial sources of recombinant enzymes were used in this study: recombinant CYP3A4−b5 enzyme (Baculosomes®) was purchased from Invitrogen (Carlsbad, Calif.) and the recombinant CYP3A4+b5 enzyme (Supersomes®) was purchased from BD Biosciences (Woburn, Mass.).

[3] abbreviates: Baculo. enzyme preparation, read-out: Kiapp (BFC, Baculo.).
Where [4] appears, read: Super. enzyme preparation, read-out: Kiapp (BFC, Super.).

For orientation: IC50 means the concentration that inhibits the measured activity by half.

The structures appear in SMILES notation. Like-named read-outs stand apart in the source and are kept apart here.

T1 sequence (P08684 whole entry): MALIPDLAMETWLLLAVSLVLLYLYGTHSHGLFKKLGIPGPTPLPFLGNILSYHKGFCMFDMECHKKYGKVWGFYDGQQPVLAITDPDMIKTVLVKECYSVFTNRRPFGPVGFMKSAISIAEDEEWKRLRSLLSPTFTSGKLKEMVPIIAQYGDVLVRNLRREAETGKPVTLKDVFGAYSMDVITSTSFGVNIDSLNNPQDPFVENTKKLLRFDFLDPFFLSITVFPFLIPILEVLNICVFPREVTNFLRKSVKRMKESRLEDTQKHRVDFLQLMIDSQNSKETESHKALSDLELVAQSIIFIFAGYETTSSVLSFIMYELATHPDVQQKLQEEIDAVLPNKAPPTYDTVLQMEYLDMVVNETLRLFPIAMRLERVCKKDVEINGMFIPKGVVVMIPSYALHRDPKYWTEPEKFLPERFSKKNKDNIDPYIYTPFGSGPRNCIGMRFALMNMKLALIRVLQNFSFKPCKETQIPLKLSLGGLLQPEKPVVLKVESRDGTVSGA

For `COc1ccncc1NS(=O)(=O)c1ccccc1C(=O)N[C@H](C)C(C)C` [Example 112, N-[(1R)-12-dimethylpropyl]-2-{[(4-methoxypyridin-3-yl)amino]sulfonyl}benzamide], at CYP3A4 [1], the IC50 came out at 46 nM. The results for the Ki on CYP3A4 [2] (setting [3]) and at CYP3A4 [2] (setting [4]) were 438 nM and 119 nM, respectively.

`CCC(C)NC(=O)c1ccccc1S(=O)(=O)Nc1cncc(N)c1` (stereo not drawn) [Example 113, 2-{[(5-aminopyridin-3-yl)amino]sulfonyl}-N-(sec-butyl)benzamide]: the IC50 on CYP3A4 [1] was 90 nM. For the same compound, the Ki worked out at 698 nM on CYP3A4 [2] (setting [3]) and 97.5 nM on CYP3A4 [2] (setting [4]).

Consider `COCCN(C(=O)c1ccccc1S(=O)(=O)Nc1cncc(N)c1)C(C)C` [Example 114, 2-{[(5-aminopyridin-3-yl)amino]sulfonyl}-N-isopropyl-N-(2-methoxyethyl)benzamide], for which, on CYP3A4 [1], the IC50 came to 134 nM. The Ki on CYP3A4 [2] (setting [3]) was found to be 466 nM; on CYP3A4 [2] (setting [4]), 105 nM.

In the case of `CCOc1ccncc1NS(=O)(=O)c1ccccc1C(=O)NCC(C)CC` (stereo not drawn) [Example 115, 2-{[(4-ethoxypyridin-3-yl)amino]sulfonyl}-N-(2-methylbutyl)benzamide], on CYP3A4 [1], the IC50 stood at 23 nM. The Ki at CYP3A4 [2] (setting [3]) stood at 124 nM; at CYP3A4 [2] (setting [4]), 26 nM.

Regarding `CCC(C)CNC(=O)c1ccccc1S(=O)(=O)Nc1cnccc1OC` (stereo not drawn) [Example 116, 2-{[(4-methoxypyridin-3-yl)amino]sulfonyl}-N-(2-methylbutyl)benzamide], the IC50 on CYP3A4 [1] amounted to 33 nM. Moreover, the Ki at CYP3A4 [2] (setting [3]) turned out to be 317 nM; at CYP3A4 [2] (setting [4]), 50.9 nM.

On to `Nc1cncc(NS(=O)(=O)c2ccccc2C(=O)NCc2ccc(F)c(F)c2)c1` [Example 117, 2-{[(5-aminopyridin-3-yl)amino]sulfonyl}-N-(34-difluorobenzyl)benzamide], for which the IC50 at CYP3A4 [1] came out at 20 nM. For the same compound, the Ki was 159 nM at CYP3A4 [2] (setting [3]) and 14.8 nM on CYP3A4 [2] (setting [4]).

For the compound `CCC(C)CNC(=O)c1ccccc1S(=O)(=O)Nc1cncc(C)c1` (stereo not drawn) [Example 118, N-(2-methylbutyl)-2-{[(5-methylpyridin-3-yl)amino]sulfonyl}benzamide], on CYP3A4 [1], the IC50 came out at 18 nM. Further, the Ki at CYP3A4 [2] (setting [3]) is 103 nM; at CYP3A4 [2] (setting [4]), 13.5 nM.

`CCOc1ccncc1NS(=O)(=O)c1ccccc1C(=O)NC(C)CC` (stereo not drawn) [Example 119, N-(sec-butyl)-2-{[(4-ethoxypyridin-3-yl)amino]sulfonyl}benzamide]: the IC50 on CYP3A4 [1] amounted to 45 nM. Besides, the Ki on CYP3A4 [2] (setting [3]) is 249 nM; at CYP3A4 [2] (setting [4]), 71.2 nM.

For the compound `CCC(C)NC(=O)c1ccccc1S(=O)(=O)Nc1cnccc1OC` (stereo not drawn) [Example 120, N-(sec-butyl)-2-{[(4-methoxypyridin-3-yl)amino]sulfonyl}benzamide], the IC50 at CYP3A4 [1] is 86 nM. Moreover, the Ki stood at 487 nM on CYP3A4 [2] (setting [3]) and 140 nM on CYP3A4 [2] (setting [4]).

For `CCC(C)NC(=O)c1ccccc1S(=O)(=O)Nc1cncc(C)c1` (stereo not drawn) [Example 121, N-(sec-butyl)-2-{[(5-methylpyridin-3-yl)amino]sulfonyl}benzamide], the IC50 on CYP3A4 [1] was 31 nM. Moreover, the figures for the Ki on CYP3A4 [2] (setting [3]) and at CYP3A4 [2] (setting [4]) were 490 nM and 71.2 nM, respectively.

As to `CCOc1ccncc1NS(=O)(=O)c1ccccc1C(=O)N(C)Cc1ccc(C(F)(F)F)cc1` [Example 122, 2-{[(4-ethoxypyridin-3-yl)amino]sulfonyl}-N-methyl-N-[4-(trifluoromethyl)benzyl]benzamide], the IC50 at CYP3A4 [1] was determined as 31 nM. Further, the Ki on CYP3A4 [2] (setting [3]) came out at 49.5 nM; at CYP3A4 [2] (setting [4]), 10 nM.

As to `COc1ccncc1NS(=O)(=O)c1ccccc1C(=O)N(C)Cc1ccc(C(F)(F)F)cc1` [Example 123, 2-{[(4-methoxypyridin-3-yl)amino]sulfonyl}-N-methyl-N-[4-(trifluoromethyl)benzyl]benzamide], the IC50 on CYP3A4 [1] came to 10 nM. Moreover, the values for the Ki at CYP3A4 [2] (setting [3]) and at CYP3A4 [2] (setting [4]) were 72.5 nM and 15.2 nM, respectively.

As for `CCOc1ccncc1NS(=O)(=O)c1ccccc1C(=O)N(C)Cc1ccccc1F` [Example 124, 2-{[(4-ethoxypyridin-3-yl)amino]sulfonyl}-N-(2-fluorobenzyl)-N-methylbenzamide], the IC50 on CYP3A4 [1] stood at 14 nM. Besides, the Ki on CYP3A4 [2] (setting [3]) was 136 nM; on CYP3A4 [2] (setting [4]) it was 18 nM.

Regarding `COc1ccncc1NS(=O)(=O)c1ccccc1C(=O)N(C)Cc1ccccc1F` [Example 125, N-(2-fluorobenzyl)-2-{[(4-methoxypyridin-3-yl)amino]sulfonyl}-N-methylbenzamide], the IC50 at CYP3A4 [1] amounted to 20 nM. Moreover, the values for the Ki on CYP3A4 [2] (setting [3]) and at CYP3A4 [2] (setting [4]) were 185 nM and 31.2 nM, respectively.

For `COCCN(C(=O)c1ccccc1S(=O)(=O)Nc1cnccc1OC)C(C)C` [Example 127, N-isopropyl-N-(2-methoxyethyl)-2-{[(4-methoxypyridin-3-yl)amino]sulfonyl}benzamide], on CYP3A4 [1], the IC50 turned out to be 107 nM. The Ki was determined as 694 nM at CYP3A4 [2] (setting [3]) and 282 nM at CYP3A4 [2] (setting [4]).

As to `COCCN(C(=O)c1ccccc1S(=O)(=O)Nc1cccnc1)C(C)C` [Example 128, N-isopropyl-N-(2-methoxyethyl)-2-[(pyridin-3-ylamino)sulfonyl]benzamide], the IC50 on CYP3A4 [1] stood at 67 nM. Besides, the Ki on CYP3A4 [2] (setting [3]) came out at 448 nM; on CYP3A4 [2] (setting [4]), 54.9 nM.

Regarding `Cc1cncc(NS(=O)(=O)c2ccccc2C(=O)N(C)Cc2ccccc2F)c1` [Example 129, N-(2-fluorobenzyl)-N-methyl-2-{[(5-methylpyridin-3-yl)amino]sulfonyl}benzamide], the IC50 at CYP3A4 [1] was determined as 12 nM. For the same compound, the results for the Ki at CYP3A4 [2] (setting [3]) and on CYP3A4 [2] (setting [4]) were 87.6 nM and 9.6 nM, respectively.

Regarding `COCCN(C(=O)c1ccccc1S(=O)(=O)Nc1cncc(C)c1)C(C)C` [Example 130, N-isopropyl-N-(2-methoxyethyl)-2-{[(5-methylpyridin-3-yl)amino]sulfonyl}benzamide], the IC50 on CYP3A4 [1] came to 22 nM. Moreover, the Ki worked out at 134 nM at CYP3A4 [2] (setting [3]) and 62.8 nM on CYP3A4 [2] (setting [4]).

As to `COc1cncc(NS(=O)(=O)c2ccccc2C(=O)NCC(F)(F)C(F)(F)C(F)(F)F)c1` [Example 131, N-(2,2,3,3,4,4,4-heptafluorobutyl)-2-{[(5-methoxypyridin-3-yl)amino]sulfonyl}benzamide], the IC50 on CYP3A4 [1] is over 750 nM. The Ki is over 1000 nM on CYP3A4 [2] (setting [3]) and 329 nM at CYP3A4 [2] (setting [4]).

For the compound `COc1cncc(NS(=O)(=O)c2ccccc2C(=O)NCc2ccc(Cl)c(F)c2)c1` [Example 132, N-(4-chloro-3-fluorobenzyl)-2-{[(5-methoxypyridin-3-yl)amino]sulfonyl}benzamide], the IC50 on CYP3A4 [1] was 8 nM. The Ki is 40.6 nM on CYP3A4 [2] (setting [3]) and 8.4 nM at CYP3A4 [2] (setting [4]).

Consider `COc1cncc(NS(=O)(=O)c2ccccc2C(=O)NCc2c(Cl)cccc2Cl)c1` [Example 133, N-(2,6-dichlorobenzyl)-2-{[(5-methoxypyridin-3-yl)amino]sulfonyl}benzamide], for which the half-inhibitory concentration (IC50) on CYP3A4 [1] is 18 nM. The figures for the Ki at CYP3A4 [2] (setting [3]) and on CYP3A4 [2] (setting [4]) were 67.8 nM and 11.6 nM, respectively.

`COc1cncc(NS(=O)(=O)c2ccccc2C(=O)NCCc2ccc(C(F)(F)F)c(F)c2)c1` [Example 134, N-{2-[3-fluoro-(trifluoromethyl)phenyl]ethyl}-2-{[(5-methoxypyridin-3-yl)amino]sulfonyl}benzamide]: on CYP3A4 [1], the IC50 is 14 nM. For the same compound, the Ki on CYP3A4 [2] (setting [3]) came out at 69.7 nM; on CYP3A4 [2] (setting [4]) it was 8.7 nM.

Turning to `COc1cncc(NS(=O)(=O)c2ccccc2C(=O)NC(C)Cc2ccc(F)c(F)c2)c1` (stereo not drawn) [Example 135], at CYP3A4 [1], the IC50 amounted to 18 nM. In addition, the Ki on CYP3A4 [2] (setting [3]) came out at 24.8 nM; at CYP3A4 [2] (setting [4]) it was 4.9 nM.

As for `COc1cncc(NS(=O)(=O)c2ccccc2C(=O)NCCc2ccc(C)c(F)c2F)c1` [Example 136, N-[2-(2,3-difluoro-4-methylphenyl)ethyl]-2-{[(5-methoxypyridin-3-yl)amino]sulfonyl}benzamide], the IC50 on CYP3A4 [1] amounted to 10 nM. Further, the Ki at CYP3A4 [2] (setting [3]) turned out to be 59.8 nM; on CYP3A4 [2] (setting [4]) it was 4.8 nM.
